How the values were obtained:
[1] = tested on: nuclear β-catenin in C2C12 cells; assay: cells; type: cell-based; conditions: concentration response; for WntCondMedia_bCatenin C2C12 IC50/EC50: assay number 5
[2] = tested on: endothelial tube formation in co-cultures of ECFCs and ADSCs treated with VEGF; assay: cells; type: cell-based, human
[3] = target: T1, hGSK3b (Homo sapiens, UniProt P49841); assay: Cerep LANCE kinase assay hGSK3b (S1 assay 34); type: biochemical; conditions: for hGSK3b LANCE IC50/EC50: assay number 34
T1 construct: purchased Cerep (LANCE kinase assay platform, contract assay)
T1 sequence (P49841 whole entry): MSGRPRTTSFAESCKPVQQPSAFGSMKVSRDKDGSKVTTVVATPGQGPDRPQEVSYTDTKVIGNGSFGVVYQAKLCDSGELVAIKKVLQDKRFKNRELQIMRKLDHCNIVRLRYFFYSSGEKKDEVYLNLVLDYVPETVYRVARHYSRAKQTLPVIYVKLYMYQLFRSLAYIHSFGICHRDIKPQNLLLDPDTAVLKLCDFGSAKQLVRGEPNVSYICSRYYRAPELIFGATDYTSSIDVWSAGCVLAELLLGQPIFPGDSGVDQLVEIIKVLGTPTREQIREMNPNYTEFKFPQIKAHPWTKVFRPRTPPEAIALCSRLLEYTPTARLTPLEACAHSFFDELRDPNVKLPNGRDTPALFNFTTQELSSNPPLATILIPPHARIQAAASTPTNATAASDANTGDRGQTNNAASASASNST

[4] = tested on: HCT116 cells treated with a GSK3β inhibitor; assay: cells; type: cell-based; conditions: for GSK3b inh pretreated_Viability ATP HCT116 IC50/EC50: assay number 26, GSK3b inhibitor pretreated
[5] = tested on: SW480; assay: cells; type: cell-based; conditions: basal
[6] = tested on: HeLa cells; assay: cells; type: cell-based; conditions: for Hela CellCycMod PI 2N IC50/EC50: assay number 14; for Hela CellCycMod PI S Phase IC50/EC50: assay number 15; for Hela CellCycMod PI 4N IC50/EC50: assay number 16; for Hela CellCycMod PI MI IC50/EC50: assay number 17; for Hela CellCycMod PI Cell Number IC50/EC50: assay number 18
[7] = tested on: ECFC/ADSC co-culture cell nuclei number
[8] = tested on: HCT116; assay: cells; type: cell-based; conditions: basal; for Basal_Viability ATP HCT116 IC50/EC50: assay number 25
[9] = target: T2, hKDR (Homo sapiens, UniProt P35968); assay: Cerep LANCE kinase assay hKDR (S1 assay 32); type: biochemical; conditions: for hKDR LANCE IC50/EC50: assay number 32
T2 construct: purchased Cerep (LANCE kinase assay platform, contract assay)
T2 sequence (P35968 20-1356): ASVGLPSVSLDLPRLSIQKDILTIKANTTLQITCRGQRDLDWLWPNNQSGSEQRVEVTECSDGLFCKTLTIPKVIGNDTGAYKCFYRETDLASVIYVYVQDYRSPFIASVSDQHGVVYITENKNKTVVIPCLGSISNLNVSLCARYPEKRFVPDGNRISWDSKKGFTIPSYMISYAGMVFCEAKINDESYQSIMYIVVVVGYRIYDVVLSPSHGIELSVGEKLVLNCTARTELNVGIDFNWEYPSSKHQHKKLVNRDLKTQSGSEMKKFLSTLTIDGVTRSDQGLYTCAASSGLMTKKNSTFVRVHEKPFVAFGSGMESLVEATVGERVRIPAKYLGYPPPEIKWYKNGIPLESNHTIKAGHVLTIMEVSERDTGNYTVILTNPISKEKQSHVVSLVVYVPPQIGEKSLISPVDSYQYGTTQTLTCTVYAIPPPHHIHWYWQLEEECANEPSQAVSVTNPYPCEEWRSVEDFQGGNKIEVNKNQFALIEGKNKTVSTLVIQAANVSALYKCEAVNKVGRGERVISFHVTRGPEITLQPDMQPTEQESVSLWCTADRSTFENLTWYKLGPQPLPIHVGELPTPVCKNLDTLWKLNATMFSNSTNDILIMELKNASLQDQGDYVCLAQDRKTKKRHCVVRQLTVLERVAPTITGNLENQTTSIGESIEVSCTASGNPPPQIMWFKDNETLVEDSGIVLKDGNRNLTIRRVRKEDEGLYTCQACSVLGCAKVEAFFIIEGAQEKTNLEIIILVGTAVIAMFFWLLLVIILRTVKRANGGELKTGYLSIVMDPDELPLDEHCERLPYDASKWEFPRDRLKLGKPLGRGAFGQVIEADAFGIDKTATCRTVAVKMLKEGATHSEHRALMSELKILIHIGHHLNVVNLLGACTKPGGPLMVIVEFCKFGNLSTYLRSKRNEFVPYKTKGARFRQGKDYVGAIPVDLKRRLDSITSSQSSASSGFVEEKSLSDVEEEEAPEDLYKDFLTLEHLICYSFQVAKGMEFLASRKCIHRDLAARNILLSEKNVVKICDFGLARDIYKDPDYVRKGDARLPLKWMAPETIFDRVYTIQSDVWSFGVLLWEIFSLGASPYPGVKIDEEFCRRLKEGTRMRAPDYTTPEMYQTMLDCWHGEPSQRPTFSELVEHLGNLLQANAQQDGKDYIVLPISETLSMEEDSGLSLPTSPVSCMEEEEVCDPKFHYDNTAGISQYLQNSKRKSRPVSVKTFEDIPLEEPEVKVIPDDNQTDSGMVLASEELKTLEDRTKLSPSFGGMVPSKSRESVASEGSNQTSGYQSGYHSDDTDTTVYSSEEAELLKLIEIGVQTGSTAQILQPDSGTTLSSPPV

[10] = tested on: HT-29; assay: cells; type: cell-based; conditions: for Basal_Viability ATP HT-29 IC50/EC50: assay number 28
[11] = target: T3, hFLT3 (Homo sapiens, UniProt P36888); assay: Cerep LANCE kinase assay hFLT3 (S1 assay 35); type: biochemical; conditions: for hFLT3 LANCE IC50/EC50: assay number 35
T3 construct: purchased Cerep (LANCE kinase assay platform, contract assay)
T3 sequence (P36888 27-993): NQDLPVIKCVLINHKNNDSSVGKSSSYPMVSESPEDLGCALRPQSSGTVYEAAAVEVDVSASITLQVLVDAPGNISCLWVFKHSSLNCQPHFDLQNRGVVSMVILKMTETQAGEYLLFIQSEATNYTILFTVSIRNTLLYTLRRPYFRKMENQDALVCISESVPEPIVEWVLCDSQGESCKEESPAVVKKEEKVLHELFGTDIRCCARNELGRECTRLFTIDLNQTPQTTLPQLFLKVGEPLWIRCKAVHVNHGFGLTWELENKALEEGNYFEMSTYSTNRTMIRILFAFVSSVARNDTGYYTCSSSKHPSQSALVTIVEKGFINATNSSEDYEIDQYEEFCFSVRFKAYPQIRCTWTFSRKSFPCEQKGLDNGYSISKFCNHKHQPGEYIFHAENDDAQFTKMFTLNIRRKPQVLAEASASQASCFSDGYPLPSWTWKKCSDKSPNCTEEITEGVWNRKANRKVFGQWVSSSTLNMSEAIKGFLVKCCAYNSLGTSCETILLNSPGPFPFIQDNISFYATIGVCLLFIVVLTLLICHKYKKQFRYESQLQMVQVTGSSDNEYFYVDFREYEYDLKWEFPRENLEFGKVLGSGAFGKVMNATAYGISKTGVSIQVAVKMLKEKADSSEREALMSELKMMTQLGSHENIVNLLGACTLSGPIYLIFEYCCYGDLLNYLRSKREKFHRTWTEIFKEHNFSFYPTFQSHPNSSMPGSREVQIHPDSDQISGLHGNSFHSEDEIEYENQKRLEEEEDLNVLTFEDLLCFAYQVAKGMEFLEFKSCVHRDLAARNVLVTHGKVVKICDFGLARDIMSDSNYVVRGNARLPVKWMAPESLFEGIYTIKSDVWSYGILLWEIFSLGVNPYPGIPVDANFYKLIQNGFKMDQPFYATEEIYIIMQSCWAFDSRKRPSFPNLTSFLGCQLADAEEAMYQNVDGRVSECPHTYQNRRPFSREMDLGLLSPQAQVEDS

[12] = tested on: RKO; assay: cells; type: cell-based; conditions: for Basal_Viability ATP RKO IC50/EC50: assay number 29
[13] = target: T4, hp70S6K1 (RPS6KB1) (Homo sapiens, UniProt P23443); assay: Cerep LANCE kinase assay hp70S6K1 (S1 assay 31); type: biochemical; conditions: for hp70S6K1 LANCE IC50/EC50: assay number 31
T4 construct: purchased Cerep (LANCE kinase assay platform, contract assay)
T4 sequence (P23443 whole entry): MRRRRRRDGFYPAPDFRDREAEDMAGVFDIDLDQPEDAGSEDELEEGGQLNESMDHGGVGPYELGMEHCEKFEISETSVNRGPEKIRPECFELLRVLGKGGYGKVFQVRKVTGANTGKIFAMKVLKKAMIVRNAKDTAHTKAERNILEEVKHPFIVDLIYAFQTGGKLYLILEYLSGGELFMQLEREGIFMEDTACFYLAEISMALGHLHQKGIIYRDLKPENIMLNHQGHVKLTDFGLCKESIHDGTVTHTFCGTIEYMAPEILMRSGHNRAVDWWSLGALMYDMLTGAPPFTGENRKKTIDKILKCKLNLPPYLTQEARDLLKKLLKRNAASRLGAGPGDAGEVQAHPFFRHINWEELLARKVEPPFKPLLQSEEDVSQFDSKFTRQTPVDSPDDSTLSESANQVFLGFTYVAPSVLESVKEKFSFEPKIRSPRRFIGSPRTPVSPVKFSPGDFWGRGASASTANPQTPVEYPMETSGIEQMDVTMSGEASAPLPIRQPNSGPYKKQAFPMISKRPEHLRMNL

[14] = target: T5, hJAK2 (Homo sapiens, UniProt O60674); assay: Cerep LANCE kinase assay hJAK2 (S1 assay 33); type: biochemical; conditions: for hJAK2 LANCE IC50/EC50: assay number 33
T5 construct: purchased Cerep (LANCE kinase assay platform, contract assay)
T5 sequence (O60674 whole entry): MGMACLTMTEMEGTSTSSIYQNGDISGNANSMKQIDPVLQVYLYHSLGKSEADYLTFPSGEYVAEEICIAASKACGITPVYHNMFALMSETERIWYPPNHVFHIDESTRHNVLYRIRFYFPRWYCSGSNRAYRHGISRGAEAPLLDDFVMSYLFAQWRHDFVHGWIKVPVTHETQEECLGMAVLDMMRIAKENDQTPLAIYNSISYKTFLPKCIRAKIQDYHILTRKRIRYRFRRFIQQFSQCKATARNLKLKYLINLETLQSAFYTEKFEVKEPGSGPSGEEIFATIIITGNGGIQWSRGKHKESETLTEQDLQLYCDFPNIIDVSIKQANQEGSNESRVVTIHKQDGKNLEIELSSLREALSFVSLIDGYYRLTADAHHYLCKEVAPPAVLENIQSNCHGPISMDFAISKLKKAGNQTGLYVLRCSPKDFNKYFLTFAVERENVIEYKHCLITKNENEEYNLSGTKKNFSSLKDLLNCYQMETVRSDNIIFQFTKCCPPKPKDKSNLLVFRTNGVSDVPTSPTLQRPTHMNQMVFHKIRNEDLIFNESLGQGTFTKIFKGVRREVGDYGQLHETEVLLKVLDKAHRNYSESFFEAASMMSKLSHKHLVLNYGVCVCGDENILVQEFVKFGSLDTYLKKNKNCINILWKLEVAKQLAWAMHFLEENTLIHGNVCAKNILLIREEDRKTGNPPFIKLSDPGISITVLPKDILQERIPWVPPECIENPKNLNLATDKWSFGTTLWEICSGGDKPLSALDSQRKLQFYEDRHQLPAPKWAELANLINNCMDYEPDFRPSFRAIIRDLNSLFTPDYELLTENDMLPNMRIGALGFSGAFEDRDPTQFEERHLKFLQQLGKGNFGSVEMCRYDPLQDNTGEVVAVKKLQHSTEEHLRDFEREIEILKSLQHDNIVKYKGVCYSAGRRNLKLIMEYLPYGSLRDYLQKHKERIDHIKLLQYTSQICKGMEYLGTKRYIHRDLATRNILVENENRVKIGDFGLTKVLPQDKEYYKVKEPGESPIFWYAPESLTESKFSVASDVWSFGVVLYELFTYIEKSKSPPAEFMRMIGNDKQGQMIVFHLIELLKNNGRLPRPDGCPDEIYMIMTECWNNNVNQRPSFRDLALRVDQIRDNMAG

[15] = tested on: SNU-C1; assay: cells; type: cell-based; conditions: assay number 30
[16] = tested on: Colo320; assay: cells; type: cell-based; conditions: assay number 27
[17] = tested on: DLD-1; assay: cells; type: cell-based; conditions: for Basal_Viability ATP DLD-1 IC50/EC50: assay number 23
[18] = tested on: alkaline phosphatase (ALP) activity in C2C12 cells; type: cell-based; conditions: concentration response; for WntCondMedia_Alk Phos C2C12 IC50/EC50: assay number 6

SMILES	WntCondMedia_bCatenin C2C12 IC50/EC50 [1] [nM]	VEGF_ADSC\ECFC Angio CD31 TubeArea IC50/EC50 [2] [nM]	hGSK3b LANCE IC50/EC50 [3] [nM]	GSK3b inh pretreated_Viability ATP HCT116 IC50/EC50 [4] [nM]	Hela CellCycMod PI 2N IC50/EC50 ([6]; 2N) [nM]	Hela CellCycMod PI S Phase IC50/EC50 [6] [nM]	Hela CellCycMod PI 4N IC50/EC50 ([6]; 4N) [nM]	Hela CellCycMod PI MI IC50/EC50 ([6]; MI) [nM]	Hela CellCycMod PI Cell Number IC50/EC50 [6] [nM]	VEGF_ADSC\ECFC Angio Hoechst NucArea IC50/EC50 [7] [nM]	Basal_Viability ATP HCT116 IC50/EC50 [8] [nM]	hKDR LANCE IC50/EC50 [9] [nM]	hFLT3 LANCE IC50/EC50 [11] [nM]	hp70S6K1 LANCE IC50/EC50 [13] [nM]	hJAK2 LANCE IC50/EC50 [14] [nM]	WntCondMedia_Alk Phos C2C12 IC50/EC50 [18] [nM]	Basal_Viability ATP HT-29 IC50/EC50 [10] [nM]	Basal_Viability ATP RKO IC50/EC50 [12] [nM]	Basal_Viability ATP SNU-C1 IC50/EC50 [15] [nM]	also measured
O=C1c2c(O)ccc(O)c2C(=O)c2c(NCCNCCO)ccc(NCCNCCO)c21 [NCGC00015693-09]	30.3	4.4	> 20000	1	> 10000	> 10000	> 10000	> 10000	3.1	12.74	1233.5	> 20000	> 20000	> 20000	> 20000	1509	–	–	–	Basal_Viability ATP SW480 IC50/EC50 ([5]; assay number 24): 1830.6 nM; Basal_Viability ATP HT-29 IC50/EC50 ([10]; basal): 7591 nM; Basal_Viability ATP RKO IC50/EC50 ([12]; basal): 1029.1 nM; Basal_Viability ATP SNU-C1 IC50/EC50 ([15]; basal): 1718 nM; Basal_Viability ATP Colo 320 IC50/EC50 ([16]; basal): 7407.9 nM; Basal_Viability ATP DLD-1 IC50/EC50 ([17]; basal): 1603.8 nM
CC(C)C[C@H](NC(=O)[C@H](CCc1ccccc1)NC(=O)CN1CCOCC1)C(=O)N[C@@H](Cc1ccccc1)C(=O)N[C@@H](CC(C)C)C(=O)[C@@]1(C)CO1 [NCGC00249613-02]	29.2	20.4	> 20000	1.73	> 10000	–	> 10000	> 10000	9.9	285.2	5.58	> 20000	> 20000	> 20000	> 20000	15.2	3.18	3.94	1.47	Basal_Viability ATP DLD-1 IC50/EC50 [17]: 6.96 nM
COC(=O)Nc1nc2ccc([S+]([O-])c3ccccc3)cc2[nH]1 (centres unmarked) [NCGC00095157-05]	–	–	–	–	–	–	–	–	–	–	–	–	–	–	–	–	–	–	–	IC50/EC50, WntCondMedia_bCatenin C2C12 (assay number 5) [1]: 468.3 nM; IC50/EC50, VEGF_ADSC\ECFC Angio CD31 TubeArea (assay number 2) [2]: 288.4 nM; IC50/EC50, hGSK3b LANCE (assay number 34) [3]: > 20000 nM; IC50/EC50, GSK3b inh pretreated_Viability ATP HCT116 (assay number 26) ([4]; GSK3b inh pretreated): 1 nM; IC50/EC50, Basal_Viability ATP SW480 (assay number 24) [5]: > 20000 nM; IC50/EC50, Hela CellCycMod PI 2N (assay number 14) ([6]; 2N): 326.3 nM; IC50/EC50, Hela CellCycMod PI 4N (assay number 16) ([6]; 4N): 331 nM; IC50/EC50, Hela CellCycMod PI Cell Number (assay number 18) ([6]; Cell Number): 257.5 nM; IC50/EC50, Hela CellCycMod PI MI (assay number 17) ([6]; MI): 241.1 nM; IC50/EC50, VEGF_ADSC\ECFC Angio Hoechst NucArea (assay number 3) [7]: > 10000 nM; IC50/EC50, Basal_Viability ATP HCT116 (assay number 25) [8]: 1 nM; IC50/EC50, hKDR LANCE (assay number 32) [9]: > 20000 nM; IC50/EC50, Basal_Viability ATP HT-29 (assay number 28) ([10]; basal): > 20000 nM; IC50/EC50, hFLT3 LANCE (assay number 35) [11]: > 20000 nM; IC50/EC50, Basal_Viability ATP RKO (assay number 29) ([12]; basal): 1 nM; IC50/EC50, hp70S6K1 LANCE (assay number 31) [13]: > 20000 nM; IC50/EC50, hJAK2 LANCE (assay number 33) [14]: > 20000 nM; IC50/EC50, Basal_Viability ATP DLD-1 (assay number 23) ([17]; basal): > 20000 nM; IC50/EC50, WntCondMedia_Alk Phos C2C12 (assay number 6) [18]: 559.3 nM
CC[C@]1(O)C[C@@H]2CN(CCc3c([nH]c4ccccc34)[C@@](C(=O)OC)(c3cc4c(cc3OC)N(C)[C@H]3[C@@](O)(C(=O)OC)[C@H](OC(C)=O)[C@]5(CC)C=CCN6CC[C@]43[C@@H]65)C2)C1.O=S(=O)(O)O [NCGC00263548-01]	5.8	2.3	> 20000	1	3.3	> 10000	3.2	3.2	2.6	> 10000	1	> 20000	> 20000	> 20000	> 20000	8.9	1	1	> 20000	Basal_Viability ATP Colo 320 IC50/EC50 [16]: 1 nM
